In patent US9956293B2, “Targeted therapeutics” (Madrigal Pharmaceuticals, Inc., priority 2014, dated 2018) one finds IC50 data, which are given here for 15 compounds.

In one experiment the test system is HER2. The experiment is described as follows: HER2 degradation assay with BT-474 cell line (Example 12, FACS). It counts as cell-based. The note with it: Homo sapiens, BT-474; SDC-TRAPs of the 41st table. The text has this: HER2 Degradation Assay with BT-474 Cell Line
HER2 has emerged as a key target for anticancer drugs due to its intrinsic involvement in the phosphatidylinositol-3-kinase-Akt/protein kinase B (PI3K-Akt) and the mitogen-activated protein kinase (MAPK) pathways, both of which suppress apoptosis and promote tumor cell survival, gene transcription, angiogenesis, cellular proliferation, migration, mitosis, and differentiation. The degradation of HER2 is a measure of efficacy of anticancer therapeutics that target Hsp90. Accordingly, the SDC-TRAP molecules of the invention that comprise a binding moiety that binds Hsp90 were tested in the following HER2 degradation assay.
BT-474 cells (human breast cancer cell line ATCC HTB-20) were obtained from ATCC and seeded into 12-well tissue culture plates at 0.2×10^6/1.8 mL/well. […] Each test compound was titrated in 4-fold dilutions from 5 μM to 78 nM with DMSO and 200 μL of the titration was added to each well of the cell plate. The DMSO final concentration was 0.2%. Cells were incubated overnight at 37° C. in 5% CO2.
Media was decanted from the plate, cells were washed 1× in PBS. 400 μL trypsin (EDTA) per well was added, and the cells were incubated for 2 to 3 minutes. Cells were collected into FACS tubes containing 1 ml culture medium to neutralize the trypsin and were centrifuged for 5 minutes at 1200 rpm. Supernatant was decanted and the cells were resuspended in 5 μL FITC (anti HER2/nu)/200 μL staining buffer (1×PBS+1% FBS+0.05% Sodium Azide)/tube. Controls were […] IgG isotype control and staining buffer only. Tubes were incubated for 30 minutes in the dark at room temperature. 1 mL staining buffer was added to each tube and the tubes were centrifuged for 6 minutes at 1200 rpm. The supernatant was decanted and 300 μL staining buffer was added to each tube, which was store at 4° C. for FACS (cytometer) analysis. The cytometer readout was normalized and the potency of each compound is evaluated with IC50 calculated with XLfit™ software.
Regarding `CC(C)c1cc(-c2nnc(O)n2-c2ccc(CN3CCN(C(=O)c4ccc(CCc5c[nH]c6nc(N)[nH]c(=O)c56)cc4)CC3)cc2)c(O)cc1O` [SDC-TRAP-0068, 2-amino-5-(4-(4-(4-(3-(2,4-dihydroxy-5-isopropylphenyl)-5-hydroxy-4H-1,2,4-triazol-4-yl)benzyl)piperazine-1-carbonyl)phenethyl)-3H-pyrrolo[2,3-d]pyrimidin-4(7H)-one], the IC50 amounted to 262 nM.

Regarding `CC(C)c1cc(-c2nnc(O)n2-c2ccc(CN3CCN(C(=O)c4ccc(CCc5c[nH]c6nc(N)[nH]c(=O)c56)cc4)CC3)c(F)c2)c(O)cc1O` [SDC-TRAP-0078, 2-amino-5-(4-(4-(4-(3-(2,4-dihydroxy-5-isopropylphenyl)-5-hydroxy-4H-1,2,4-triazol-4-yl)-2-fluorobenzyl)piperazine-1-carbonyl)phenethyl)-3H-pyrrolo[2,3-d]pyrimidin-4(7H)-one], the midpoint of inhibition, the IC50, lay at 1000 nM. `CC(C)c1cc(-c2nnc(O)n2-c2ccc(N3CCN(C(=O)c4ccc(CCc5c[nH]c6nc(N)[nH]c(=O)c56)cc4)CC3)cc2)c(O)cc1O` [SDC-TRAP-0082, 2-amino-5-(4-(4-(4-(3-(2,4-dihydroxy-5-isopropylphenyl)-5-hydroxy-4H-1,2,4-triazol-4-yl)phenyl)piperazine-1-carbonyl)phenethyl)-3H-pyrrolo[2,3-d]pyrimidin-4(7H)-one]: the IC50 turned out to be 1040 nM. Consider `CC(C)c1cc(-c2nnc(O)n2-c2ccc3c(c2)CN(C(=O)c2ccc(CCc4c[nH]c5nc(N)[nH]c(=O)c45)cc2)C3)c(O)cc1O` [SDC-TRAP-0093, 2-amino-5-(4-(5-(3-(2,4-dihydroxy-5-isopropylphenyl)-5-hydroxy-4H-1,2,4-triazol-4-yl)isoindoline-2-carbonyl)phenethyl)-3H-pyrrolo[2,3-d]pyrimidin-4(7H)-one], for which the IC50 was more than 5000 nM. In the case of `CC(C)c1cc(-c2nnc(O)n2-c2ccc3c(c2)nc(C2CCN(C(=O)c4ccc(CCc5c[nH]c6nc(N)[nH]c(=O)c56)cc4)CC2)n3C)c(O)cc1O` [SDC-TRAP-0102, 2-amino-5-(4-(4-(5-(3-(2,4-dihydroxy-5-isopropylphenyl)-5-hydroxy-4H-1,2,4-triazol-4-yl)-1-methyl-1H-benzo[d]imidazol-2-yl)piperidine-1-carbonyl)phenethyl)-3H-pyrrolo[2,3-d]pyrimidin-4(7H)-one], the IC50 was more than 5000 nM.

The experiment is the same for the next values; noted with them: Homo sapiens, BT-474; SDC-TRAPs of the 43rd table.
`CCc1c2c(nc3ccc(O)cc13)-c1cc3c(c(=O)n1C2)COC(=O)C3(CC)OC(=O)N(C)CCCCN1CCN(Cc2ccc(-n3c(O)nnc3-c3cc(C(C)C)c(O)cc3O)cc2)CC1` (stereo not drawn) [SDC-TRAP-0055, 4,11-diethyl-9-hydroxy-3,14-dioxo-3,4,12,14-tetrahydro-1H-pyrano[3′,4′:6,7]indolizino[1,2-b]quinolin-4-yl (4-(4-(4-(3-(2,4-dihydroxy-5-isopropylphenyl)-5-hydroxy-4H-1,2,4-triazol-4-yl)benzyl)piperazin-1-yl)butyl)(methyl)carbamate] displayed an IC50 of 402 nM.

`CCc1c2c(nc3ccc(OCCN4CCN(c5ccc(-n6c(O)nnc6-c6cc(C(C)C)c(O)cc6O)cc5)CC4)cc13)-c1cc3c(c(=O)n1C2)COC(=O)C3(O)CC` (stereo not drawn) [SDC-TRAP-0057, 9-(2-(4-(4-(3-(2,4-dihydroxy-5-isopropylphenyl)-5-hydroxy-4H-1,2,4-triazol-4-yl)phenyl)piperazin-1-yl)ethoxy)-4,11-diethyl-4-hydroxy-1H-pyrano[3′,4′:6,7]indolizino[1,2-b]quinoline-3,14(4H,12H)-dione] gave an IC50 of 449 nM. On the same count and under the same terms, to `CCc1c2c(nc3ccc(OCCn4ccc5cc(-n6c(O)nnc6-c6cc(C(C)C)c(O)cc6O)ccc54)cc13)-c1cc3c(c(=O)n1C2)COC(=O)C3(O)CC` (stereo not drawn) [SDC-TRAP-0058, 9-(2-(5-(3-(2,4-dihydroxy-5-isopropylphenyl)-5-hydroxy-4H-1,2,4-triazol-4-yl)-1H-indol-1-yl)ethoxy)-4,11-diethyl-4-hydroxy-1H-pyrano[3′,4′:6,7]indolizino[1,2-b]quinoline-3,14(4H,12H)-dione] belongs 2930 nM; to `CCc1c2c(nc3ccc(OCC(=O)N4CCN(Cc5ccc(-n6c(O)nnc6-c6cc(C(C)C)c(O)cc6O)cc5)CC4)cc13)-c1cc3c(c(=O)n1C2)COC(=O)C3(O)CC` (stereo not drawn) [SDC-TRAP-0077, 9-(2-(4-(4-(3-(2,4-dihydroxy-5-isopropylphenyl)-5-hydroxy-4H-1,2,4-triazol-4-yl)benzyl)piperazin-1-yl)-2-oxoethoxy)-4,11-diethyl-4-hydroxy-1H-pyrano[3′,4′:6, 7]indolizino[1,2-b]quinoline-3,14(4H,12H)-dione], 2790 nM.

The same experiment, now with this note: Homo sapiens, BT-474; SDC-TRAPs of the 52nd table.
On to `COc1ccc(-c2cnoc2-c2cc(OC)c(OC)c(OC)c2)cc1OC(=O)N1CCN(c2ccc(-n3c(O)nnc3-c3cc(C(C)C)c(O)cc3O)cc2)CC1` [SDC-TRAP-0099, 2-methoxy-5-(5-(3,4,5-trimethoxyphenyl)isoxazol-4-yl)phenyl-4-(4-(3-(2,4-dihydroxy-5-isopropylphenyl)-5-hydroxy-4H-1,2,4-triazol-4-yl)phenyl)piperazine-1-carboxylate], for which half-maximal inhibition (IC50) was put at 677 nM.

Still in this experiment, the particulars now being: Homo sapiens; BT-474 cells.
`CC(C)c1cc(-c2nnc(O)n2-c2ccc3c(ccn3CCNC(=O)Cn3cc(F)c(=O)[nH]c3=O)c2)c(O)cc1O` [SDC-TRAP-0013, N-(2-(5-(3-(2,4-dihydroxy-5-isopropylphenyl)-5-hydroxy-4H-1,2,4-triazol-4-yl)-1H-indol-1-yl)ethyl)-2-(5-fluoro-2,4-dioxo-3,4-dihydropyrimidin-1(2H)-yl) acetamide]: the IC50 is more than 5000 nM. The same measure, in the same setting: next, `CC(C)c1cc(-c2nnc(O)n2-c2ccc3c(ccn3CCOCCNC(=O)CCn3cc(F)c(=O)[nH]c3=O)c2)c(O)cc1O` [SDC-TRAP-0048, N-(2-(2-(5-(3-(2,4-dihydroxy-5-isopropylphenyl)-5-hydroxy-4H-1,2,4-triazol-4-yl)-1H-indol-1-yl)ethoxy)ethyl)-3-(5-fluoro-2,4-dioxo-3,4-dihydropyrimidin-1(2H)-yl)propanamide]: more than 5000 nM; `CC(C)c1cc(-c2nnc(O)n2-c2ccc(CN3CCN(C(=O)CCn4cc(F)c(=O)[nH]c4=O)CC3)cc2)c(O)cc1O` [SDC-TRAP-0049, 1-(3-(4-(4-(3-(2,4-dihydroxy-5-isopropylphenyl)-5-hydroxy-4H-1,2,4-triazol-4-yl)benzyl)piperazin-1-yl)-3-oxopropyl)-5-fluoropyrimidine-2,4(1H,3H)-dione]: more than 5000 nM. On the same count and under the same terms, to `CC(C)c1cc(-c2nnc(O)n2-c2ccc3c(ccn3CCOCCN(C)C(=O)CCn3cc(F)c(=O)[nH]c3=O)c2)c(O)cc1O` [SDC-TRAP-0050, N-(2-(2-(5-(3-(2,4-dihydroxy-5-isopropylphenyl)-5-hydroxy-4H-1,2,4-triazol-4-yl)-1H-indol-1-yl)ethoxy)ethyl)-3-(5-fluoro-2,4-dioxo-3,4-dihydropyrimidin-1(2H)-yl)-N-methylpropanamide] belongs more than 5000 nM; to `CC(C)c1cc(-c2nnc(O)n2-c2ccc3c(ccn3CCN(C)C(=O)CCn3cc(F)c(=O)[nH]c3=O)c2)c(O)cc1O` [SDC-TRAP-0051, N-(2-(5-(3-(2,4-dihydroxy-5-isopropylphenyl)-5-hydroxy-4H-1,2,4-triazol-4-yl)-1H-indol-1-yl)ethyl)-3-(5-fluoro-2,4-dioxo-3,4-dihydropyrimidin-1(2H)-yl)-N-methylpropanamide], more than 5000 nM.

The IC50 is the concentration that gives 50% inhibition. Lower therefore signals greater potency.
